Values after ≈ are worked out from the molar mass of the structure shown. Values joined by “and” are separate entries in the source; they are usually repeats but may differ in a detail not shown here. Equal entries are not always repeated. Where two headings read alike, the source gives them in different places.

Experimental findings from paper PMC7397269, “Synthesis and Evaluation of New Coumarin Derivatives as Antioxidant, Antimicrobial, and Anti-Inflammatory Agents” (Molecules, 2020) are described below.

Test [1] concerns Bacillus subtilis ATCC 6633. Kind of test: MIC, two-fold serial dilution, B. subtilis. Format: cell-based. Conditions: ATCC6633, read-out: Minimum inhibitory concentration, BS. An excerpt: (§1) The new molecules were individually tested for their antimicrobial activity in vitro against standard bacteria strains from the American Type Culture Collection (ATCC), namely, Staphylococcus aureus ATCC 29213, Bacillus subtilis ATCC 6633, Bacillus megaterium ATCC 9885 (Gram-positive), Escherichia coli ATCC 2592, and Pseudomonas aeruginosa ATCC 27,953 (Gram-negative). The compounds were also microbiologically tested against locally isolated Saccharomyces cerevisiae (yeast) and the standard Agricultural Research Service Culture Collection (NRRL) strain of the yeast-like pathogenic fungus Candida albicans NRRL Y-477. Primary screening was conducted using the agar well diffusion method using nutrient agar (NA) medium and Sabourand dextrose agar (SDA) medium for the tested pathological bacteria and yeast, respectively. […].
(§2) The bacteriostatic activity of the active compounds (having IZ > 16 mm) was then evaluated using the two-fold serial dilution technique. Two-fold serial dilutions of the tested compounds solutions were prepared using the proper nutrient broth to reach final concentrations of 1000, 500, 250, and 125 μg/mL. The tubes were then inoculated with the test microorganisms grown in their suitable broth at 37 °C for 24 h (1 × 10^8 CFU/mL for bacteria and 1 × 10^6 CFU/mL of yeast), 0.1 mL of the above inoculum was administered per 5 mL, and the tubes were incubated at 37 °C for 24 h. The lowest concentration showing no growth was taken as the MIC.

Test [2] concerns Staphylococcus aureus ATCC 29213. Description: Agar well diffusion, S. aureus. Format: cell-based. To be noted: ATCC29213, 100 μL of 10 mg/mL in DMSO, read-out: diameter of inhibition zone, SA. In outline: (§3)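 Read-out: inhibition zone diameter in mm, mean of triplicate runs. Compound solution (10 mg/mL in DMSO, 100 μL) was loaded into 10 mm wells cut in seeded NA (bacteria, 1 × 10^8 CFU/mL) or SDA (yeast, 1 × 10^6 CFU/mL), then incubated 24 h at 37 °C.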
For orientation: A growth-free zone around the sample is the usual read-out of agar diffusion tests.

In test [3] the target is T1, COX-2 (Homo sapiens, UniProt P35354).
T1 construct: purchased Cayman Chemical 701080
T1 sequence (P35354 18-604): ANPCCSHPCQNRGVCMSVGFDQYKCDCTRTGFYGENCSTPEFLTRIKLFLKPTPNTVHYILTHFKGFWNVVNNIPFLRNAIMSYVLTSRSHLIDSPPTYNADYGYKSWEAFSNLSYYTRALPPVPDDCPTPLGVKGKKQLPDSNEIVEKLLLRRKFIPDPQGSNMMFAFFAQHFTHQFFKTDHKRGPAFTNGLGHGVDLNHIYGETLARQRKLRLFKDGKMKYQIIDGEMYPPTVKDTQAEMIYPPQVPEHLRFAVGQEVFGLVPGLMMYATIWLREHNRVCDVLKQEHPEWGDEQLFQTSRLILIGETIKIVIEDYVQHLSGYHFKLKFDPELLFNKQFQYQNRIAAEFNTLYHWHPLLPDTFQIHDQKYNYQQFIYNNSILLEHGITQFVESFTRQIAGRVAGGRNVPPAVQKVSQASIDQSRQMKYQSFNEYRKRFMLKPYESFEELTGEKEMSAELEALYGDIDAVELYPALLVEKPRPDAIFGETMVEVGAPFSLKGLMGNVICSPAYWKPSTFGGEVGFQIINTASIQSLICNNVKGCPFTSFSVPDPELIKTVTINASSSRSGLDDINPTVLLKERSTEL
Description: COX-2 inhibition, Cayman assay kit. Format: biochemical. To be noted: for IC50: mean of two determinations; for SI, selectivity index (COX-1/COX-2): ratio of COX-1/COX-2 IC50.

The test system of test [4] is Saccharomyces cerevisiae local isolate. Kind of test: Agar well diffusion, S. cerevisiae. Format: cell-based. Conditions: read-out: diameter of inhibition zone, SC. In outline: as §3
The test system of test [5] is Candida albicans NRRL Y-477. Description: MIC, two-fold serial dilution, C. albicans. The format is cell-based. To be noted: NRRLY477, read-out: Minimum inhibitory concentration, CA. In outline: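 Compounds with agar-well inhibition zones >16 mm were retested by two-fold broth dilution at final concentrations of 1000, 500, 250 and 125 μg/mL. Inocula of 1 × 10^8 CFU/mL (bacteria) or 1 × 10^6 CFU/mL (yeast), 0.1 mL per 5 mL. MIC = lowest concentration without growth after 24 h at 37 °C.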

The test system of test [6] is Escherichia coli ATCC 2592. Description: Agar well diffusion, E. coli. Format: cell-based. To be noted: ATCC2592, 100 μL of 10 mg/mL in DMSO, read-out: diameter of inhibition zone, EC. In outline:
as §3

The test system of test [7] is Bacillus subtilis ATCC 6633. Description: Agar well diffusion, B. subtilis. Format: cell-based. To be noted: ATCC6633, 100 μL of 10 mg/mL in DMSO, read-out: diameter of inhibition zone, BS. In outline: as §3
For test [8], the system named is tested microorganisms. Description: MIC, summary over the tested microorganisms. To be noted: two-fold serial dilution. The format is cell-based.
Text: as §1, §2

The test system of test [9] is formaldehyde-induced rat paw oedema. Kind of test: Formaldehyde-induced rat paw oedema (prophylactic). Format: in vivo. Conditions: 2.5 mg/kg orally, 1 h after inducing inflammation.
Where [10] appears, read: well diffusion, 100 μL of 10 mg/mL in DMSO, S. cerevisiae.
[11] abbreviates: read-out: MIC against one or more tested microorganisms.
[12] abbreviates: read-out: MIC against Gram-positive bacteria.

`O=c1oc2ccc(Cl)cc2c(O)c1S(=O)(=O)Nc1ccccc1` [8a, 6-Chloro-4-hydroxy-2-oxo-N-phenyl-2H-chromene-3-sulfonamide]: the MIC in test [1] and in test [5] was 250 µg/mL (≈ 711 µM) throughout. Also, the zone of inhibition – broadly, the size of the clear area around the sample on an inoculated plate – at 10000 µg/mL in [2] stood at 26 mm; in [4] (setting [10]), 28 mm; in test [6] it was 25 mm; in test [7], 28 mm. Besides, the IC50 (usually the point on the concentration scale where inhibition reaches its midpoint) in [3] is 8.5 µM. Further, in [3], the “SI, selectivity index (COX-1/COX-2)” value is reported as 2.94.
Turning to `O=c1oc2ccc(Cl)cc2c(O)c1S(=O)(=O)Nc1ccc(S(=O)(=O)Nc2nccs2)cc1` [7e, 6-Chloro-4-hydroxy-2-oxo-N-(4-(N-(thiazol-2-yl)sulfamoyl)phenyl)-2H-chromene-3-sulfonamide], the MIC in [1] and in test [5] was 500 µg/mL (≈ 973 µM) each time. Moreover, the zone of inhibition at 10000 µg/mL in test [2] was 23 mm; in test [4] (setting [10]) it was 20 mm; in test [6] it was 20 mm; in [7] it was 25 mm. The IC50 in [3] amounted to 16.1 µM. In addition, the “SI, selectivity index (COX-1/COX-2)” value in test [3] came out at 1.84.
Consider `Cc1ccc2oc(=O)c(S(=O)(=O)Nc3ccc(O)cc3)c(O)c2c1` [8d, 4-Hydroxy-N-(4-hydroxyphenyl)-6-methyl-2-oxo-2H-chromene-3-sulfonamide], for which the MIC in test [1], in test [5] and in test [8] (setting [11]) was 125 µg/mL (≈ 360 µM) in each case. Besides, the zone of inhibition at 10000 µg/mL was 30 mm in test [2], 31 to 32 mm in test [4] (setting [10]), 31 mm in test [6] and 29 mm in test [7]. Besides, half-maximal inhibition in test [3] (IC50) was put at 1.86 µM. The “SI, selectivity index (COX-1/COX-2)” value in test [3] was 10.5 and 10.45.
On to `Cc1ccc2oc(=O)c3c(c2c1)OC(N)=C(C#N)C3c1ccc([N+](=O)[O-])cc1` (racemic) [2a, (±)-2-Amino-9-methyl-4-(4-nitrophenyl)-5-oxo-4H,5H-pyrano[3,2-c]chromene-3-carbonitrile], for which the values for the MIC in [1], in [5] and in test [8] (setting [12]) were 500 µg/mL (≈ 1330 µM), 500 µg/mL (≈ 1330 µM) and 500 to 1000 µg/mL (≈ 1330 to 2660 µM), respectively. Also, the zone of inhibition at 10000 µg/mL in [2] came out at 24 mm; in test [4], 25 mm; in test [6] it was 18 mm; in test [7], 22 mm. The compound also displayed an IC50 in test [3] of 2.74 µM. The “SI, selectivity index (COX-1/COX-2)” value in [3] worked out at 42.58.
With `COc1cc(/C=N/C2=C(C#N)C(c3ccc([N+](=O)[O-])cc3)c3c(c4cc(C)ccc4oc3=O)O2)cc(OC)c1OC` (racemic) [5c, (±)-9-methyl-4-(4-nitrophenyl)-5-oxo-2-((3,4,5-trimethoxybenzylidene)amino)-4H,5H-pyrano[3,2-c]chromene-3-carbonitrile], the MIC in test [1] and in test [5] was 500 µg/mL (≈ 903 µM) throughout. Also, the zone of inhibition at 10000 µg/mL in [2] is 23 mm; in test [4] it was 27 mm; in test [6], 24 mm; in test [7], 23 mm. Further, the midpoint of inhibition in test [3], the IC50, lay at 13.3 µM. The “SI, selectivity index (COX-1/COX-2)” value in [3] turned out to be 1.39.
For the compound `Cc1ccc2oc(=O)c(S(=O)(=O)Nc3ccc(S(=O)(=O)Nc4nccs4)cc3)c(O)c2c1` [7f, 4-Hydroxy-6-methyl-2-oxo-N-(4-(N-(thiazol-2-yl)sulfamoyl)phenyl)-2H-chromene-3-sulfonamide], the MIC in test [1] amounted to 250 µg/mL (≈ 507 µM); in test [5], 500 µg/mL (≈ 1010 µM). In addition, the zone of inhibition at 10000 µg/mL stood at 24 mm in [2], 26 mm in test [4] (setting [10]), 23 mm in test [6] and 27 mm in test [7]. The compound further yielded an IC50 in test [3] of 10.1 µM. The “SI, selectivity index (COX-1/COX-2)” value in [3] is on record as 4.06. Also, the “% inhibition of paw oedema” value in test [9] is 17.18%.
For the compound `O=c1oc2ccc(Cl)cc2c(O)c1S(=O)(=O)Nc1ccc(S(=O)(=O)Nc2ncccn2)cc1` [7c, 6-Chloro-4-hydroxy-2-oxo-N-(4-(N-(pyrimidin-2-yl)sulfamoyl)phenyl)-2H-chromene-3-sulfonamide], the MIC in test [1], in [5] and in [8] (setting [11]) was 125 µg/mL (≈ 246 µM) in each case. The zone of inhibition at 10000 µg/mL in test [2] was 30 mm; in [4] (setting [10]), 31 to 32 mm; in [6], 30 mm; in [7], 31 mm. Further, in [3], the IC50 worked out at 19.9 µM. In addition, the “SI, selectivity index (COX-1/COX-2)” value in test [3] is 3.12.
Turning to `NS(=O)(=O)c1ccc(NS(=O)(=O)c2c(O)c3cc(Cl)ccc3oc2=O)cc1` [7a, 6-Chloro-4-hydroxy-2-oxo-N-(4-sulfamoylphenyl)-2H-chromene-3-sulfonamide], the MIC in test [1] and in [5] was 250 µg/mL (≈ 580 µM) in each case. The zone of inhibition at 10000 µg/mL in [2] worked out at 28 mm; in test [4] (setting [10]), 26 mm; in test [6] it was 28 mm; in test [7], 29 mm. Besides, the IC50 in test [3] worked out at 17.4 µM. Moreover, the “SI, selectivity index (COX-1/COX-2)” value in [3] was determined as 13.75.
Turning to `Cc1ccc2oc(=O)c3c(c2c1)OC(/N=C/c1ccc(Cl)cc1Cl)=C(C#N)C3c1ccco1` (racemic) [5f, (±)-2-((2,4-dichlorobenzylidene)amino)-4-(furan-2-yl)-9-methyl-5-oxo-4H,5H-pyrano[3,2-c]chromene-3-carbonitrile], the results for the MIC in test [1], in [5] and in test [8] (setting [12]) were 500 µg/mL (≈ 1050 µM), 500 µg/mL (≈ 1050 µM) and 500 to 1000 µg/mL (≈ 1050 to 2100 µM), respectively. Further, the zone of inhibition at 10000 µg/mL in test [2] turned out to be 25 mm; in test [4], 24 mm; in test [6], 20 mm; in [7] it was 23 mm. For the same compound, inhibition in [3] was half-maximal at 3.1 µM (IC50). In test [3], the “SI, selectivity index (COX-1/COX-2)” value came out at 29.1.
`Cc1ccc2oc(=O)c(S(=O)(=O)Nc3ccccc3)c(O)c2c1` [8b, 4-Hydroxy-6-methyl-2-oxo-N-phenyl-2H-chromene-3-sulfonamide]: the MIC in test [1] and in test [5] was 1000 µg/mL (≈ 3020 µM) in each case. In addition, the zone of inhibition at 10000 µg/mL in test [2] stood at 20 mm; in test [4] (setting [10]), 19 mm; in [6] it was 18 mm; in test [7] it was 19 mm. In [3], this compound came in with an IC50 of 13.4 µM. Besides, in [3], the “SI, selectivity index (COX-1/COX-2)” value came to 1.94.
Turning to `Cc1ccc2oc(=O)c(S(=O)(=O)Nc3ccc(S(=O)(=O)Nc4ncccn4)cc3)c(O)c2c1` [7d, 4-Hydroxy-6-methyl-2-oxo-N-(4-(N-(pyrimidin-2-yl)sulfamoyl)phenyl)-2H-chromene-3-sulfonamide], the MIC in test [1], in test [5], in [8] (read-out: MIC against all microorganisms) and in [8] (setting [11]) was 125 µg/mL (≈ 256 µM) throughout. For the same compound, the zone of inhibition at 10000 µg/mL in test [2] was 30 mm; in [4] (setting [10]), 31 to 32 mm; in [6] it was 28 mm; in [7], 31 mm. In addition, it took 3.35 µM to reach half-maximal inhibition in [3] (IC50). Moreover, the “SI, selectivity index (COX-1/COX-2)” value in test [3] came out at 63.96.
